From patent US5691374A, “Diaryl-5-oxygenated-2-(5H) -furanones as COX-2 inhibitors” (Merck Frosst Canada Inc., priority 1995, dated 1997)

Experiments:
COX-2 = biological target: T1, COX-2 (Homo sapiens, UniProt P35354); assay: Human Whole Blood (HWB) Assay: COX-2 (LPS-induced PGE2 production); assay type: cell-based; conditions: LPS-induced PGE2, 24 hours at 37° C.
T1 construct: incubation of human whole blood with LPS (lipopolysaccharide), which induces COX-2; from tissue; host or cells: fresh heparinized human whole blood from male and female volunteers, LPS-stimulated for 24 hours
T1 sequence (P35354 18-604): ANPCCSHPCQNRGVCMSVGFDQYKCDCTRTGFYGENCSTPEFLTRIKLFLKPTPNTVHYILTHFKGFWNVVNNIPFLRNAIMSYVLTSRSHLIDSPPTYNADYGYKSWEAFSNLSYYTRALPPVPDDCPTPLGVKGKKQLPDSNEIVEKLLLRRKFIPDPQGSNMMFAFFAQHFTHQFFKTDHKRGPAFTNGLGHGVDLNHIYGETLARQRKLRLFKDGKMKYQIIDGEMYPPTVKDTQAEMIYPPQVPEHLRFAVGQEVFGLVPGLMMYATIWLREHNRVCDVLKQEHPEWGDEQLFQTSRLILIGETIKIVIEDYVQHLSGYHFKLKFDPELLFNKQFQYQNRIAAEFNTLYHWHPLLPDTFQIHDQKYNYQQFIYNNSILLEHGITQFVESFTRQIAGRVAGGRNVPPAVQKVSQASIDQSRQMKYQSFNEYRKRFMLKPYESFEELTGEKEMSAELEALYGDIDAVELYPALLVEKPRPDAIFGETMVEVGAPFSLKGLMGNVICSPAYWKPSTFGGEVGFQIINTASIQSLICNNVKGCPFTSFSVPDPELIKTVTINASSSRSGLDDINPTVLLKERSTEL
Protocol: Human Whole Blood (HWB) Assay Human whole blood provides a protein and cell-rich milieu appropriate for the study of biochemical efficacy of anti-inflammatory compounds such as selective COX-2 inhibitors. […] This is consistent with the observation that COX-2 inhibitors have no effect on PGE2 production in normal blood. These inhibitors are active only after incubation of human whole blood with LPS (lipopolysaccharide), which induces COX-2. This assay can be used to evaluate the inhibitory effect of selective COX-2 inhibitors on PGE2 production. As well, platelets in whole blood contain a large amount of the COX-1 enzyme. Immediately following blood clotting, platelets are activated through a thrombin-mediated mechanism. This reaction results in the production of thromboxane B2 (T×B2) via activation of COX-1. Thus, the effect of test compounds on T×B2 levels levels following blood clotting can be examined and used as an index for COX-1 activity. Therefore, the degree of selectivity by the test compound can be determined by measuring the levels of PGE2 after LPS induction (COX-2) and T×B2 following blood clotting (COX-1) in the same assay. A. COX-2 (LPS-induced PGE2 production) Fresh blood was collected in heparinized tubes by venipuncture from both male and female volunteers. The subjects had no apparent inflammatory conditions and had not taken any NSAIDs for at least 7 days prior to blood collection. Plasma was immediately obtained from a 2 mL blood aliquot to use as blank (basal levels of PGE2). The remaining blood was incubated with LPS ([…] final concentration, Sigma Chem, #L-2630 from E. coli; diluted in 0.1% BSA-Phosphate buffered saline) for […]. […] At the end of the incubation, the blood was centrifuged at 12,000×g for 5 minutes to obtain plasma. A […] aliquot of plasma was mixed with […] of methanol for protein precipitation. The supernatant was obtained and was assayed for PGE2 using a radioimmunoassay kit (Amersham, RPA#530) after conversion of PGE2 to its methyl oximate derivative according to the manufacturer's procedure. Compounds of the present invention are inhibitors of cyclooxygenase-2 and are thereby useful in the treatment of cyclooxygenase-2 mediated diseases as enumerated above. The activities of the compounds against cyclooxygenase may be seen in the representative results shown below. In the assay, inhibition is determined by measuring the amount of prostaglandin E2 (PGE2) synthesized in the presence of arachidonic acid, cyclooxygenase-1 or cyclooxygenase-2 and a putative inhibitor. The IC50 values represent the concentration of putative inhibitor required to return PGE2 synthesis to 50% of that obtained as compared to the uninhibited control.

COX-1 = biological target: T2, COX-1 (Homo sapiens, UniProt P23219); assay: Human Whole Blood (HWB) Assay: COX-1 (Clotting-induced TxB2 production); assay type: cell-based; conditions: clotting-induced TxB2, 1 hour at 37° C.
T2 construct: platelets in whole blood contain a large amount of the COX-1 enzyme; from tissue; host or cells: fresh human whole blood without anticoagulant, allowed to clot (platelets)
Protocol: Human Whole Blood (HWB) Assay
Human whole blood provides a protein and cell-rich milieu appropriate for the study of biochemical efficacy of anti-inflammatory compounds such as selective COX-2 inhibitors. […] This is consistent with the observation that COX-2 inhibitors have no effect on PGE2 production in normal blood. These inhibitors are active only after incubation of human whole blood with LPS (lipopolysaccharide), which induces COX-2. This assay can be used to evaluate the inhibitory effect of selective COX-2 inhibitors on PGE2 production. As well, platelets in whole blood contain a large amount of the COX-1 enzyme. Immediately following blood clotting, platelets are activated through a thrombin-mediated mechanism. This reaction results in the production of thromboxane B2 (T×B2) via activation of COX-1. […] Therefore, the degree of selectivity by the test compound can be determined by measuring the levels of PGE2 after LPS induction (COX-2) and T×B2 following blood clotting (COX-1) in the same assay. […]
Compounds of the present invention are inhibitors of cyclooxygenase-2 and are thereby useful in the treatment of cyclooxygenase-2 mediated diseases as enumerated above. […] In the assay, inhibition is determined by measuring the amount of prostaglandin E2 (PGE2) synthesized in the presence of arachidonic acid, cyclooxygenase-1 or cyclooxygenase-2 and a putative inhibitor. […]

Rat Paw Edema = Rat Paw Edema Assay; assay type: in vivo; conditions: male Sprague-Dawley rats, po 1 hr before carrageenan, paw volume increase 3 hr later
Protocol: Rat Paw Edema Assay-Protocol
Male Sprague-Dawley rats (150-200 g) were fasted overnight and were given po either vehicle (1% methocel or 5% Tween 80) or a test compound. One hr later, a line was drawn using a permanent marker at the level above the ankle in one hind paw to define the area of the paw to be monitored. The paw volume (V0) was measured using a plethysmometer (Ugo-Basile, Italy) based on the principle of water displacement. The animals were then injected subplantarly with […] of 1% carrageenan solution in saline (FMC Corp, Maine) into the paw using an insulin syringe with a 25-gauge needle (i.e. […] carrageenan per paw). Three hr later, the paw volume (V3) was measured and the increases in paw volume (V3 -V0) were calculated. The animals were sacrificed by CO2 aphyxiation and the absence or presence of stomach lesions scored. Data were compared with the vehicle-control values and percent inhibition calculated. Since a maximum of 60-70% inhibition (paw edema) was obtained with standard NSAIDs, ED50 values were used for comparison. All treatment groups were coded to eliminate observer bias.

T2 sequence (P23219 24-599): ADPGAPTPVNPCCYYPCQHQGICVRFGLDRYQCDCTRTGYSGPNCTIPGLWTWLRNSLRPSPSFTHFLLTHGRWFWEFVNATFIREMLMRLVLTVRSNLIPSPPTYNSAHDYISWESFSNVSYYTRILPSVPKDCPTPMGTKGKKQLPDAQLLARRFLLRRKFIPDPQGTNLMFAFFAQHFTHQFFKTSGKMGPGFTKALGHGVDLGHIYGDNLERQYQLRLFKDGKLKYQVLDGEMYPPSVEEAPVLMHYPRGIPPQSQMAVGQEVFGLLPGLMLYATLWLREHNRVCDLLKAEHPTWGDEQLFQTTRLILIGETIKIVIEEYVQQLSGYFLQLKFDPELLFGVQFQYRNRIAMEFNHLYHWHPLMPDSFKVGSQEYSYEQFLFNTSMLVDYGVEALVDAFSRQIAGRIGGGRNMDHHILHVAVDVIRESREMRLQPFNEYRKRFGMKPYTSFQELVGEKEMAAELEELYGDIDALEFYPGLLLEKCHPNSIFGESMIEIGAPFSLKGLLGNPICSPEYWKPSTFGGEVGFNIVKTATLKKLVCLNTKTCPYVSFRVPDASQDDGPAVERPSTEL

IC50 (COX-2)	IC50 (COX-1)	Structure (SMILES)	ED50 (Rat Paw Edema)
< 370 nM	> 30000 nM	COC1(C)OC(=O)C(c2ccc(F)cc2)=C1c1ccc(S(C)(=O)=O)cc1 (centres unmarked) [Example 15, 3-(4-Fluorophenyl)-5-methoxy-5-methyl-4-(4-(methylsulfonyl)phenyl)-2-(5H)-furanone]	2.8 mg/kg
2420 nM		CC1(O)OC(=O)C(c2ccc(Cl)cc2)=C1c1ccc(S(C)(=O)=O)cc1 (centres unmarked) [Example 6, 3-(4-Chlorophenyl)-5-hydroxy-5-methyl-4-(4-(methylsulfonyl)phenyl)-2-(5H)-furanone]	1.41 mg/kg
1270 nM		CC1(O)OC(=O)C(c2ccccc2)=C1c1ccc(S(C)(=O)=O)cc1 (centres unmarked) [Example 4, 5-Hydroxy-5-methyl-4-(4-(methylsulfonyl)phenyl)-3-phenyl-2-(5H)-furanone]	1.53 mg/kg
1410 nM		CC1(O)OC(=O)C(c2ccc(F)cc2)=C1c1ccc(S(C)(=O)=O)cc1 (centres unmarked) [Example 5, 3-(4-Fluorophenyl)-5-hydroxy-5-methyl-4-(4-(methylsulfonyl)phenyl)-2-(5H)-furanone]	1.84 mg/kg
< 370 nM		COC1(C)OC(=O)C(c2ccccc2)=C1c1ccc(S(C)(=O)=O)cc1 (centres unmarked) [Example 10, 5-Methoxy-5-methyl-4-(4-(methylsulfonyl)phenyl)-3-phenyl-2-(5H)-furanone]	1.94 mg/kg
